The values that follow come from PubChem BioAssay AID252 (DTP/NCI, 2004).

Values joined by “and” are separate entries in the source; they are usually repeats but may differ in a detail not shown here. Identical values can stand only once. Inconclusive results and toxic doses are left out.

For this test, the system named is BDF1 mice, intracerebral L1210 leukemia, survival T/C. Nature of the test: NCI In Vivo Anticancer Drug Screen. Data for tumor model L1210 Leukemia (intracerebral) in B6D2F1 (BDF1) mice. To be noted: endpoint: mean survival time, higher = longer survival. Put shortly:
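Mice carrying transplanted tumour were dosed with compound; survival was recorded and expressed as treated-group value (T) divided by vehicle-control value (C).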

Where [1] appears, read: dose: 25.0 mg/kg/injection, schedule: Q01DX001 (ip), vehicle: carboxymethylcellulose (CMC).
The mark [2] stands for this setting: dose: 6.0 mg/kg/injection, schedule: Q01DX001 (ip), vehicle: carboxymethylcellulose (CMC).
Setting [3] is: dose: 9.0 mg/kg/injection, schedule: Q01DX001 (ip), vehicle: carboxymethylcellulose (CMC).

Consider `O=NN(CCCl)C(=O)NC1CCS(=O)(=O)CC1`, for which the T/C is 212 % of control (dose: 7.5 mg/kg/injection, schedule: Q01DX001 (ip), vehicle: carboxymethylcellulose (CMC)); 171 % of control and 172 % of control (dose: 8.0 mg/kg/injection, schedule: Q01DX001 (ip), vehicle: carboxymethylcellulose (CMC)); 289 % of control (dose: 11.4 mg/kg/injection, schedule: Q01DX001 (ip), vehicle: carboxymethylcellulose (CMC)); 197 % of control and 281 % of control (dose: 12.0 mg/kg/injection, schedule: Q01DX001 (ip), vehicle: carboxymethylcellulose (CMC)); 298 % of control (dose: 17.0 mg/kg/injection, schedule: Q01DX001 (ip), vehicle: carboxymethylcellulose (CMC)); 151 % of control and 251 % of control (dose: 18.0 mg/kg/injection, schedule: Q01DX001 (ip), vehicle: carboxymethylcellulose (CMC)). For the same compound, the T/C was 151 % of control under setting [1]; 88 % of control (dose: 27.0 mg/kg/injection, schedule: Q01DX001 (ip), vehicle: carboxymethylcellulose (CMC)); 90 % of control (dose: 37.0 mg/kg/injection, schedule: Q01DX001 (ip), vehicle: carboxymethylcellulose (CMC)).
For the compound `CCOC(=O)c1ccc(NC(=O)N(CCCl)N=O)cc1`, the T/C runs as follows: (dose: 4.0 mg/kg/injection, schedule: Q01DX001 (ip), vehicle: carboxymethylcellulose (CMC)) 108 % of control; under setting [2], 107 % of control; under setting [3], 108 % of control; (dose: 13.5 mg/kg/injection, schedule: Q01DX001 (ip), vehicle: carboxymethylcellulose (CMC)) 113 % of control.
Turning to `COCCOCCN1CCN(CCCN2c3ccccc3Sc3ccc(C(F)(F)F)cc32)CC1`, the T/C is 100 % of control (dose: 25.0 mg/kg/injection, schedule: Q04DX003 (ip), vehicle: saline); 108 % of control (dose: 35.0 mg/kg/injection, schedule: Q04DX003 (ip), vehicle: saline); 93 % of control (dose: 50.0 mg/kg/injection, schedule: Q04DX003 (ip), vehicle: saline).
Regarding `CN(N=O)C(=O)Nc1ccc(F)cc1`, the T/C runs as follows: (dose: 75.0 mg/kg/injection, schedule: Q01DX001 (ip), vehicle: carboxymethylcellulose (CMC)) 101 % of control; (dose: 150.0 mg/kg/injection, schedule: Q01DX001 (ip), vehicle: carboxymethylcellulose (CMC)) 103 % of control.
Turning to `O=NN(CCCl)C(=O)Nc1c[nH]c(=O)[nH]c1=O`, the T/C (dose: 4.4 mg/kg/injection, schedule: Q01DX001 (ip), vehicle: carboxymethylcellulose (CMC)) is 103 % of control; the T/C (dose: 6.7 mg/kg/injection, schedule: Q01DX001 (ip), vehicle: carboxymethylcellulose (CMC)) is 101 % of control; the T/C (dose: 10.0 mg/kg/injection, schedule: Q01DX001 (ip), vehicle: carboxymethylcellulose (CMC)) was 102 % of control; the T/C (dose: 15.0 mg/kg/injection, schedule: Q01DX001 (ip), vehicle: carboxymethylcellulose (CMC)) is 103 % of control; the T/C (dose: 20.0 mg/kg/injection, schedule: Q01DX001 (ip), vehicle: carboxymethylcellulose (CMC)) was 98 % of control; the T/C (dose: 30.0 mg/kg/injection, schedule: Q01DX001 (ip), vehicle: carboxymethylcellulose (CMC)) is 107 % of control. In addition, the T/C (dose: 40.0 mg/kg/injection, schedule: Q01DX001 (ip), vehicle: carboxymethylcellulose (CMC)) is 100 % of control and the T/C (dose: 60.0 mg/kg/injection, schedule: Q01DX001 (ip), vehicle: carboxymethylcellulose (CMC)) was 94 % of control.
`CC[C@H]1CN2CCc3cc(OC)c(OC)cc3[C@@H]2C[C@@H]1C[C@H]1NCCc2cc(OC)c(OC)cc21`: the T/C by setting is: (dose: 1.0 mg/kg/injection, schedule: Q01DX005 (ip), vehicle: saline) 101 % of control; (dose: 1.0 mg/kg/injection, schedule: Q01DX009 (ip), vehicle: saline) 100 % of control; (dose: 2.0 mg/kg/injection, schedule: Q01DX005 (ip), vehicle: saline) 100 % of control; (dose: 2.0 mg/kg/injection, schedule: Q01DX009 (ip), vehicle: saline) 98 % of control; (dose: 2.0 mg/kg/injection, schedule: Q04DX003 (ip), vehicle: saline) 101 % of control; (dose: 4.0 mg/kg/injection, schedule: Q01DX005 (ip), vehicle: saline) 98 % of control. Moreover, the T/C runs as follows: (dose: 4.0 mg/kg/injection, schedule: Q01DX009 (ip), vehicle: saline) 101 % of control; (dose: 4.0 mg/kg/injection, schedule: Q04DX003 (ip), vehicle: saline) 101 % of control; (dose: 4.0 mg/kg/injection, schedule: Q08DX002 (ip), vehicle: saline) 100 % of control; (dose: 8.0 mg/kg/injection, schedule: Q01DX005 (ip), vehicle: saline) 98 % of control; (dose: 8.0 mg/kg/injection, schedule: Q01DX009 (ip), vehicle: saline) 100 % of control; (dose: 8.0 mg/kg/injection, schedule: Q04DX003 (ip), vehicle: saline) 96 % of control. The T/C was 97 % of control (dose: 8.0 mg/kg/injection, schedule: Q08DX002 (ip), vehicle: saline); 87 % of control (dose: 16.0 mg/kg/injection, schedule: Q01DX005 (ip), vehicle: saline); 104 % of control (dose: 16.0 mg/kg/injection, schedule: Q04DX003 (ip), vehicle: saline); 100 % of control (dose: 16.0 mg/kg/injection, schedule: Q08DX002 (ip), vehicle: saline); 106 % of control (dose: 32.0 mg/kg/injection, schedule: Q04DX003 (ip), vehicle: saline); 112 % of control (dose: 32.0 mg/kg/injection, schedule: Q08DX002 (ip), vehicle: saline).
Regarding `O=NN(CCO)C(=O)Nc1c[nH]c(=O)[nH]c1=O`, the T/C is 100 % of control (dose: 173.0 mg/kg/injection, schedule: Q01DX001 (ip), vehicle: carboxymethylcellulose (CMC)); 102 % of control (dose: 260.0 mg/kg/injection, schedule: Q01DX001 (ip), vehicle: carboxymethylcellulose (CMC)); 106 % of control (dose: 400.0 mg/kg/injection, schedule: Q01DX001 (ip), vehicle: carboxymethylcellulose (CMC)).
As to `O=C1NC2(CCCCC2)C(=O)N1CCN(CCCl)CCCl`, the T/C runs as follows: (dose: 0.78 mg/kg/injection, schedule: Q01DX009 (ip), vehicle: saline) 101 % of control; (dose: 1.56 mg/kg/injection, schedule: Q01DX009 (ip), vehicle: saline) 89 % of control; (dose: 3.12 mg/kg/injection, schedule: Q01DX009 (ip), vehicle: saline) 95 % of control; (dose: 6.25 mg/kg/injection, schedule: Q01DX009 (ip), vehicle: saline) 102 % of control; (dose: 12.5 mg/kg/injection, schedule: Q01DX009 (ip), vehicle: saline) 91 % of control.
With `O=NN(CCF)C(=O)NC1CCSCC1`, the T/C by setting is: (dose: 3.7 mg/kg/injection, schedule: Q01DX001 (ip), vehicle: other) 114 % of control and 123 % of control; (dose: 15.0 mg/kg/injection, schedule: Q01DX001 (ip), vehicle: other) 211 % of control and 223 % of control; (dose: 24.0 mg/kg/injection, schedule: Q01DX001 (ip), vehicle: other) 271 % of control; (dose: 31.0 mg/kg/injection, schedule: Q01DX001 (ip), vehicle: other) 460 % of control and 477 % of control; (dose: 36.0 mg/kg/injection, schedule: Q01DX001 (ip), vehicle: other) 276 % of control; (dose: 54.0 mg/kg/injection, schedule: Q01DX001 (ip), vehicle: other) 303 % of control. In addition, under “dose: 62.0 mg/kg/injection, schedule: Q01DX001 (ip), vehicle: other”, the T/C is 380 % of control.
Regarding `CCNC(=O)N(CC)N=O`, the T/C was 100 % of control (dose: 222.0 mg/kg/injection, schedule: Q01DX001 (ip), vehicle: saline); 110 % of control (dose: 333.0 mg/kg/injection, schedule: Q01DX001 (ip), vehicle: saline); 123 % of control (dose: 500.0 mg/kg/injection, schedule: Q01DX001 (ip), vehicle: saline).
Turning to `O=NN(CCCl)C(=O)Nc1ccc(CC(=O)O)cc1`, the T/C was 104 % of control under setting [2]; 106 % of control under setting [3]; 110 % of control (dose: 13.0 mg/kg/injection, schedule: Q01DX001 (ip), vehicle: carboxymethylcellulose (CMC)); 104 % of control (dose: 26.0 mg/kg/injection, schedule: Q01DX001 (ip), vehicle: carboxymethylcellulose (CMC)).
In the case of `O=NN(CCCl)C(=O)Nc1ccc(F)cc1`, the T/C reads like this: (dose: 11.0 mg/kg/injection, schedule: Q01DX001 (ip), vehicle: carboxymethylcellulose (CMC)) 109 % of control; (dose: 16.6 mg/kg/injection, schedule: Q01DX001 (ip), vehicle: carboxymethylcellulose (CMC)) 112 % of control; under setting [1], 109 % of control; (dose: 37.5 mg/kg/injection, schedule: Q01DX001 (ip), vehicle: carboxymethylcellulose (CMC)) 108 % of control.
